Paper PMC6774960, “Design, synthesis and biological evaluation of a series of new resveratrol analogues as potential anti-cancer agents” (Royal Society Open Science, 2019)
Values belong to the compound of their own block, whether it stands above or below them.

Assays:
[1] = MTT cytotoxicity test, LO2; assay type: cell-based, human; details: human, LO2 cells (normal human hepatocytes), average of three determinations
Method: (§1) Vero cells are non-tumorigenic cell lines and are important raw materials as the research and production of biological products. Vero cells show low tumorigenicity and had been approved for use in the production of human virus vaccines. Thus, Vero cells were chosen as a control for cytotoxicity. All compounds were evaluated for their cell toxicity against Vero and normal human hepatocytes cells line (LO2) using MTT assays.
(§2) The anti-proliferative and cytotoxicity activity was determined using MTT assay. Human cervical carcinoma HeLa cells, human hepatocellular carcinoma HepG2 cells, human lung carcinoma A549 cells were representative in the anti-proliferation assay, which were obtained from the Shanghai Institute of Cell Biology (Shanghai, China). Normal African green monkey kidney Vero cells were a gift from Dr Xiumiao He at Guangxi University for Nationalities. Normal human hepatocytes LO2 cells were a gift from Dr Xing Lin at Guangxi Medical University. The HepG2, Hela, LO2 and Vero cells were cultured in Dulbecco's modified Eagle's medium (DMEM, Gibco) and the A549 cells were cultured in RPMI1640 (Gibco), both media were supplemented with 10% fetal calf serum and antibiotics (100 IU ml^−1 penicillin, 100 IU ml^−1 streptomycin; Amresco).
(§3) Cells were seeded in 96-well microtiter plates at a density of 1 × 10^4 cells well^−1 and incubated with different concentrations of compound (6.25, 12.50, 25.00, 50.00 to 100.00 µM), cisplatin and paclitaxel in RPMI-1640 or DMEM at 37°C with 5% CO2. After 24 h, cell morphology was observed using a light microscope, and then 20 µl of MTT solution (5 mg ml^−1) was added to the well and incubated for 4 h, then cell survival was determined by measuring the optical density (OD) absorbance at a wavelength of 570 nm using an ELISA microplate reader. The inhibition rate (IR) following each compound treatment was determined by the following equation: IR (%) = (1 − ODexp/ODcon) × 100%, where ODexp and ODcon are the OD of the treated and untreated cells, respectively. Cisplatin and paclitaxel were used as positive control drugs.

[2] = test system: A549 cells; assay: MTT anti-proliferation assay, A549; assay type: cell-based, human; details: Homo sapiens, A549, 24 h, average of three determinations
Method: (§4) The 22 synthesized resveratrol compounds were evaluated for anti-proliferative activities against three human cancer cell lines, including HepG2, A549 and HeLa cells, using 3-[4,5-dimethylthiazol-2-yl]-2,5 diphenyl tetrazolium bromide (MTT) assays. Paclitaxel, a well-known tubulin inhibitor, was used as a positive control. […] Therefore, the inhibitory activity of the compounds depended not only on the 2-position substitution of acrylic acid, but also on the 3-position substitution of acrylic acid.
as §2, §3

[3] = test system: HeLa cells; assay: MTT anti-proliferation assay, HeLa; assay type: cell-based, human; details: Homo sapiens, HeLa, 24 h, average of three determinations
Method: The 22 synthesized resveratrol compounds were evaluated for anti-proliferative activities against three human cancer cell lines, including HepG2, A549 and HeLa cells, using 3-[4,5-dimethylthiazol-2-yl]-2,5 diphenyl tetrazolium bromide (MTT) assays. Paclitaxel, a well-known tubulin inhibitor, was used as a positive control.
as §2
After 24 h, cell morphology was observed using a light microscope, and then 20 µl of MTT solution (5 mg ml^−1) was added to the well and incubated for 4 h, then cell survival was determined by measuring the optical density (OD) absorbance at a wavelength of 570 nm using an ELISA microplate reader. […] Cisplatin and paclitaxel were used as positive control drugs.

[4] = test system: HepG2 cells; assay: MTT anti-proliferation assay, HepG2; assay type: cell-based, human; details: Homo sapiens, HepG2, 24 h, average of three determinations
Method: as §4, §2, §3

[5] = MTT cytotoxicity test, Vero; assay type: cell-based, African green monkey; details: African green monkey, Vero cells (normal African green monkey kidney), average of three determinations
Method: as §1, §2, §3

Structure (SMILES): COc1cc(C(=Cc2c(Cl)cccc2Cl)C(=O)O)cc(OC)c1OC [compound b, 3-(2,6-dichlorophenyl)-2-(3,4,5-trimethoxyphenyl) acrylic acid]
- CC50 at 24 h [1]: 92 ± 2 µM
- IC50 [2]: 46 ± 3 µM
- IC50 [3]: 32 ± 3 µM
- melting point: 217 to 218 °C
- IC50 [4]: 74 ± 4 µM
- CC50 at 24 h [5]: > 100 µM

Structure (SMILES): COc1cc(C(=Cc2cc([N+](=O)[O-])ccc2Cl)C(=O)O)cc(OC)c1OC [compound d, 3-(2-chloro-5-nitrophenyl)-2-(3,4,5-trimethoxyphenyl) acrylic acid]
- CC50 at 24 h [1]: 93 ± 2 µM
- IC50 [2]: > 100 µM
- IC50 [3]: 62 ± 3 µM
- melting point: 247 to 248 °C
- IC50 [4]: > 100 µM
- CC50 at 24 h [5]: > 100 µM

Structure (SMILES): COc1cc(C(=Cc2ccc(OC)c(OC)c2Cl)C(=O)O)cc(OC)c1OC [compound l, 3-(2-chloro-3,4-dimethoxyphenyl)-2-(3,4,5-trimethoxyphenyl) acrylic acid]
- CC50 at 24 h [1]: 64 ± 2 µM
- IC50 [2]: > 100 µM
- IC50 [3]: 89 ± 4 µM
- melting point: 171 to 173 °C
- IC50 [4]: > 100 µM
- CC50 at 24 h [5]: > 100 µM

Structure (SMILES): COc1cc(C(=Cc2cc(Cl)ccc2[N+](=O)[O-])C(=O)O)cc(OC)c1OC [compound m, 3-(5-chloro-2-nitrophenyl)-2-(3,4,5-trimethoxyphenyl) acrylic acid]
- CC50 at 24 h [1]: > 100 µM
- IC50 [2]: 34 ± 2 µM
- IC50 [3]: 60 ± 1 µM
- melting point: 167 to 169 °C
- IC50 [4]: > 100 µM
- CC50 at 24 h [5]: > 100 µM

Structure (SMILES): COc1cc(C(=Cc2c(Cl)ccc(Cl)c2Cl)C(=O)O)cc(OC)c1OC [compound n, 3-(2,3,6-trichlorophenyl)-2-(3,4,5-trimethoxyphenyl) acrylic acid]
- CC50 at 24 h [1]: 77 ± 1 µM
- IC50 [2]: 27.2 ± 0.9 µM
- IC50 [3]: 20 ± 2 µM
- melting point: 203 to 204 °C
- IC50 [4]: 79 ± 4 µM
- CC50 at 24 h [5]: 63 ± 2 µM

Structure (SMILES): COc1ccc(C(=Cc2c(Cl)cccc2Cl)C(=O)O)cc1 [compound o, 3-(2,6-dichlorophenyl)-2-(4-methoxyphenyl) acrylic acid]
- CC50 at 24 h [1]: > 100 µM
- IC50 [2]: 21.3 ± 0.7 µM
- IC50 [3]: 10 ± 2 µM
- melting point: 319 to 320 °C
- IC50 [4]: 48 ± 5 µM
- CC50 at 24 h [5]: > 100 µM

Structure (SMILES): COc1ccc(C(=Cc2ccc(OC(F)(F)F)cc2)C(=O)O)cc1 [compound p, 2-(4-methoxyphenyl)-3-(4-(trifluoromethoxy)phenyl) acrylic acid]
- CC50 at 24 h [1]: 84 ± 2 µM
- IC50 [2]: 14 ± 2 µM
- IC50 [3]: 5.1 ± 0.8 µM
- melting point: 159 to 160 °C
- IC50 [4]: 7.7 ± 0.3 µM
- CC50 at 24 h [5]: 93 ± 3 µM

Structure (SMILES): COc1ccc(C(=Cc2cccc(C(F)(F)F)c2)C(=O)O)cc1 [compound q, 2-(4-methoxyphenyl)-3-(3-(trifluoromethyl)phenyl) acrylic acid]
- CC50 at 24 h [1]: 98 ± 2 µM
- IC50 [2]: 16 ± 3 µM
- IC50 [3]: 14 ± 1 µM
- melting point: 192 to 194 °C
- IC50 [4]: 19 ± 2 µM
- CC50 at 24 h [5]: > 100 µM

Structure (SMILES): COc1ccc(C(=Cc2ccc(OC)c(OC)c2Cl)C(=O)O)cc1 [compound t, 3-(2-chloro-3,4-dimethoxyphenyl)-2-(4-methoxyphenyl) acrylic acid]
- CC50 at 24 h [1]: 87 ± 2 µM
- IC50 [2]: > 100 µM
- IC50 [3]: 24 ± 2 µM
- melting point: 202 °C
- IC50 [4]: 93 ± 3 µM
- CC50 at 24 h [5]: 85 ± 1 µM

Structure (SMILES): COc1ccc(C(=Cc2c(Cl)ccc(Cl)c2Cl)C(=O)O)cc1 [compound u, 2-(4-methoxyphenyl)-3-(2,3,6-trichlorophenyl) acrylic acid]
- CC50 at 24 h [1]: 35 ± 1 µM
- IC50 [2]: > 100 µM
- IC50 [3]: > 100 µM
- melting point: 174 °C
- IC50 [4]: > 100 µM
- CC50 at 24 h [5]: 38.6 ± 0.7 µM

Structure (SMILES): COc1ccc(C=C(C(=O)O)c2cc(C)cc(C)c2)cc1 [compound v, 2-(3,5-dimethylphenyl)-3-(4-methoxyphenyl) acrylic acid]
- CC50 at 24 h [1]: 96 ± 6 µM
- IC50 [2]: 61 ± 3 µM
- IC50 [3]: 51.25 ± 0.01 µM
- melting point: 198 to 200 °C
- IC50 [4]: 100 ± 1 µM
- CC50 at 24 h [5]: > 100 µM

Structure (SMILES): CC(=O)O[C@H]1C(=O)[C@@]2(C)[C@H]([C@H](OC(=O)c3ccccc3)[C@]3(O)C[C@H](OC(=O)[C@H](O)[C@@H](NC(=O)c4ccccc4)c4ccccc4)C(C)=C1C3(C)C)[C@]1(OC(C)=O)CO[C@@H]1C[C@@H]2O [paclitaxel, reference compound]
- CC50 at 24 h [1]: > 100 µM
- IC50 [2]: 0.17 ± 0.03 µM
- IC50 [3]: 0.7 ± 0.1 µM
- IC50 [4]: 0.39 ± 0.03 µM
- CC50 at 24 h [5]: 98 ± 1 µM

The next lines start with results.

- IC50 [2]: 34 ± 2 µM
- IC50 [3]: 27 ± 2 µM
- melting point: 233 to 235 °C
- IC50 [4]: 50 ± 4 µM
Structure (SMILES): COc1cc(C(=Cc2ccc(Cl)c(Cl)c2)C(=O)O)cc(OC)c1OC [compound a, 3-(3,4-dichlorophenyl)-2-(3,4,5-trimethoxyphenyl) acrylic acid]
- CC50 at 24 h [1]: 27 ± 1 µM
- CC50 at 24 h [5]: 28.2 ± 0.5 µM

- IC50 [2]: 30 ± 1 µM
- IC50 [3]: 46 ± 3 µM
- melting point: 228 °C
- IC50 [4]: 30 ± 3 µM
Structure (SMILES): COc1cc(C(=Cc2ccc(Cl)cc2Cl)C(=O)O)cc(OC)c1OC [compound c, 3-(2,4-dichlorophenyl)-2-(3,4,5-trimethoxyphenyl) acrylic acid]
- CC50 at 24 h [1]: > 100 µM
- CC50 at 24 h [5]: 71 ± 2 µM

- IC50 [2]: > 100 µM
- IC50 [3]: 61 ± 3 µM
- melting point: 164 °C
- IC50 [4]: > 100 µM
Structure (SMILES): COc1cc(C(=Cc2ccccc2OC(F)(F)F)C(=O)O)cc(OC)c1OC [compound e, 3-(2-(trifluoromethoxy)phenyl)-2-(3,4,5-trimethoxyphenyl) acrylic acid]
- CC50 at 24 h [1]: > 100 µM
- CC50 at 24 h [5]: 82 ± 2 µM

- IC50 [2]: 19 ± 2 µM
- IC50 [3]: 20 ± 3 µM
- melting point: 208 °C
- IC50 [4]: 18.7 ± 0.9 µM
Structure (SMILES): COc1cc(C(=Cc2ccc(OC(F)(F)F)cc2)C(=O)O)cc(OC)c1OC [compound f, 3-(4-(trifluoromethoxy)phenyl)-2-(3,4,5-trimethoxyphenyl) acrylic acid]
- CC50 at 24 h [1]: > 100 µM
- CC50 at 24 h [5]: > 100 µM

- IC50 [2]: 14 ± 4 µM
- IC50 [3]: 73 ± 5 µM
- melting point: 156 to 157 °C
- IC50 [4]: 24 ± 2 µM
Structure (SMILES): COc1cc(C(=Cc2cccc(OC(F)(F)F)c2)C(=O)O)cc(OC)c1OC [compound g, 3-(3-(trifluoromethoxy)phenyl)-2-(3,4,5-trimethoxyphenyl) acrylic acid]
- CC50 at 24 h [1]: > 100 µM
- CC50 at 24 h [5]: > 100 µM

- IC50 [2]: 32 ± 5 µM
- IC50 [3]: 26 ± 4 µM
- melting point: 162 to 164 °C
- IC50 [4]: 47 ± 4 µM
Structure (SMILES): COc1cc(C(=Cc2cccc(C(F)(F)F)c2)C(=O)O)cc(OC)c1OC [compound h, 3-(3-(trifluoromethyl)phenyl)-2-(3,4,5-trimethoxyphenyl) acrylic acid]
- CC50 at 24 h [1]: 75 ± 4 µM
- CC50 at 24 h [5]: > 100 µM

- IC50 [2]: 32 ± 2 µM
- IC50 [3]: 41 ± 4 µM
- melting point: 160 to 162 °C
- IC50 [4]: 42 ± 2 µM
Structure (SMILES): COc1cc(C(=Cc2ccccc2C(F)(F)F)C(=O)O)cc(OC)c1OC [compound i, 3-(2-(trifluoromethyl)phenyl)-2-(3,4,5-trimethoxyphenyl) acrylic acid]
- CC50 at 24 h [1]: > 100 µM
- CC50 at 24 h [5]: > 100 µM

- IC50 [2]: 18 ± 3 µM
- IC50 [3]: 19 ± 2 µM
- melting point: 259 °C
- IC50 [4]: 56.66 ± 0.02 µM
Structure (SMILES): COc1cc(C(=Cc2ccc(C(F)(F)F)cc2)C(=O)O)cc(OC)c1OC [compound j, 3-(4-(trifluoromethyl)phenyl)-2-(3,4,5-trimethoxyphenyl) acrylic acid]
- CC50 at 24 h [1]: > 100 µM
- CC50 at 24 h [5]: > 100 µM

- IC50 [2]: > 100 µM
- IC50 [3]: > 100 µM
- melting point: 258 °C
- IC50 [4]: 100 ± 0.8 µM
Structure (SMILES): COc1cc(C(=Cc2cc(C(F)(F)F)ccc2Cl)C(=O)O)cc(OC)c1OC [compound k, 3-(2-chloro-5-(trifluoromethyl)phenyl)-2-(3,4,5-trimethoxyphenyl) acrylic acid]
- CC50 at 24 h [1]: 88 ± 2 µM
- CC50 at 24 h [5]: 71 ± 2 µM
